# In a melting point compilation (Tetko et al.; mined from patent text by program, amines drawn as free bases though some values may be those of a salt):
row,SMILES,melting point [°C]
1,O=C(Cc1ccc(Cl)c(Cl)c1)N(O)[C@H](CN1CCCC1)c1ccccc1,118 to 120
2,N#CCC1Cn2cccc2C1=O (stereo unspecified),68
3,CNCC1Cc2cc(-c3cccc(F)c3)cc(F)c2O1 (stereo unspecified),> 250
4,CCOC(=O)Nc1cc2c(cc1F)nc(C(F)(F)F)n2Cc1cccc(Cl)c1,144 to 146
5,CC(C)(C)c1ccc(C(=O)O)c(C(=O)O)c1,148 to 150
6,N#Cc1c2c(c3c(c1N1CCCCC1)Cc1ccccc1-3)-c1ccccc1C2,200 to 202
7,Cc1ccccc1OCCOS(N)(=O)=O,81.5 to 83
8,O=C(Nc1cc2ncc(CN3CCCC3)cc2cc1Cl)c1ccc(-c2ccc(Cl)s2)cc1,185
9,O=C(O)c1cc(-c2ccc(C(F)(F)F)cc2)cnc1O,305 to 315
10,O=C(O)C(=O)Nc1cc(NC(=O)C(=O)O)cc(C(=O)O)c1,> 320
11,O=C(Nc1ccc(Cl)c(C(F)(F)F)c1)Oc1ccc2c(c1)CCCN2,150
12,CC(C)(C)NCC(O)COc1ccccc1C=Cc1cccc2c1CC(=O)N2 (stereo unspecified),112
13,CCOC(=O)c1cc2cccc(O)c2[nH]1,197 to 199
14,N#Cc1ccc(-c2ccc(I)cc2)cc1,162 to 168
15,CC(C)(C)C(F)(F)c1ccc(C[C@@H](NC(=O)c2cccc3c2C=CCCC3)[C@@H](O)c2cccc(Cl)c2)cc1 (racemic),119 to 120
16,CCOC(=O)c1ccccc1COc1ccc(C=O)cc1,60 to 62
17,COC(=O)c1ccc(OCC2CN(c3ccc(N)cc3)C(=O)O2)cc1 (stereo unspecified),139 to 142
18,COC(=O)C1C(=O)Nc2ccccc2CC1c1ccc(OC)cc1 (stereo unspecified),217 to 219
19,CCCCCN(CCC12CC3CC(CC(C3)C1)C2)C(=O)NC/C=C/c1ccncc1,90 to 118
20,O=C1N(CC(O)CO)c2ccccc2C12COc1cc3c(cc12)OCCO3 (stereo unspecified),179 to 181
21,CCCCCN(CCCCC)C(=O)C(Cc1ccc(OCC(=O)O)c(C(=O)O)c1)NC(=O)C(Cc1ccccc1)NC(=O)OC(C)(C)C (stereo unspecified),87 to 90
22,O=Cc1cccn2cc(-c3ccccc3)nc12,96 to 99
23,CSc1ccc2c(c1)Cc1ccc(C(=O)O)cc1O2,266 to 267
24,COC(=O)c1ccc(Cl)c(Cn2nnn(C3CC3)c2=O)c1Cl,99 to 100

row,SMILES,melting point [°C]
1,COc1ccccc1[C@@]1(O)[C@H](O)CC(c2ccccc2)(c2ccccc2)[C@@H]2CN(C(=O)Cc3ccc(N)cc3)C[C@@H]21 (racemic),188
2,CCc1nc(O)c(I)c(Cl)n1,> 230
3,Cc1noc(C)c1C(=O)Nc1ccc(-n2ccc(C(F)(F)F)n2)cc1,177 to 178
4,Nc1ccc(F)c(Br)c1F,77 to 78
5,CSc1ccccc1C1CCN(CCCCNC(=O)c2ccc(-c3ccc(C(F)(F)F)cc3)cc2)CC1,191 to 192
6,CNC(=O)Cc1c(-c2ccc(C)cc2)nn2cccnc12,207 to 208
7,COC(=O)C(c1ccccc1)C(c1ccc(OC)cc1)n1cncn1 (stereo unspecified),159 to 161
8,ON=C1c2ccccc2CCC1Br (stereo unspecified),125 to 131
9,CN(C(=O)Nc1nc(OCC(F)(F)F)cc(OCC(F)(F)F)n1)c1ccc(Br)cc1,110 to 111
10,O=C(O)CCC1COc2ccccc2O1 (stereo unspecified),102
11,COCc1cccc2oc(C(=O)Nc3ccc(-c4ccc(S(=O)(=O)NC(C(=O)O)C(C)C)cc4)cc3)c(C)c12 (stereo unspecified),227 to 230
12,COc1ccc(C2OCC(COC(C(F)(F)F)(C(F)(F)F)C(F)(F)F)(COC(C(F)(F)F)(C(F)(F)F)C(F)(F)F)CO2)cc1,89 to 90
13,O=c1[nH]c2ccccc2n1CCCN1CCC(n2c(=S)[nH]c3ccccc32)CC1,248
14,Cc1ccc(CNC(=O)c2nc(N3CCOCC3)n(C)c(=O)c2O)cc1C,164 to 166
15,Cc1ccc(-c2ccc3c(c2)CCc2nn(-c4ccccn4)c(O)c2-3)cc1,177 to 178
16,CCCc1cc(=O)c(C(=O)OC)c(C)[nH]1,171 to 172
17,COC1C(CO)OC(n2cnc3c(N)ncnc32)C1(C)O (stereo unspecified),180
18,Cc1ccc(-c2cccc3ccccc23)n1CC[C@H]1C[C@H](O)CC(=O)O1 (relative stereo),137 to 138
19,O=C1CCC(N2C(=O)c3ccc([N+](=O)[O-])cc3C2=O)C(=O)N1 (stereo unspecified),228 to 230
20,COC(=O)c1nc(Br)cc(Br)c1O,181 to 183
21,N=C1CCCN1Cc1ccc(Cl)nc1,166
22,COc1ccc(C(C)=O)c2cccc(S(=O)(=O)N(C)C)c12,124 to 127
23,CCOC(=O)C1=C(COCCNS(N)(=O)=O)NC(C)=C(C(=O)OC)C1c1cccc(Cl)c1Cl (stereo unspecified),89 to 90
24,CC1(C)Oc2ccc(C#N)cc2[C@@H](NC(=O)Nc2ccccc2)[C@@H]1O (relative stereo),226 to 227

row,SMILES,melting point [°C]
1,COc1cc2c(cc1OC)CN(C(=O)Cc1ccc(OC)c([N+](=O)[O-])c1)CC2,175
2,COc1ccc(C(=O)NC(Cc2ccccc2)C(=O)NC(Cc2ccc(O)cc2)C(=O)O)cc1 (stereo unspecified),198 to 200
3,COC(=O)[C@H]1C=C(C2CCCCC2)OC(=O)[C@H]1Cc1ccccc1,87 to 89
4,CC(C)c1cccc(C(C)C)c1NC(=O)CN1CCN(CCSc2nc3cccc(-c4cc[nH]n4)c3o2)CC1,181 to 183
5,CCn1c(C)nc(N2CCc3ccccc3CC2)c([N+](=O)[O-])c1=O,145 to 147
6,CCOC(=O)Cc1ccc(NC(=O)C(COc2cccnc2)NS(=O)(=O)c2ccc(Cl)cc2)cc1 (racemic),136 to 139
7,CCOC(=O)/C=C/C(C)(C)NC(=O)OC(C)(C)C,40 to 41
8,O=c1c(CCCc2ccncc2)cc2cccnc2n1-c1cccc([N+](=O)[O-])c1,209 to 210
9,NS(=O)(=O)c1cccc(C2OCCO2)c1,145 to 147
10,CCCCC/C(=C\C=C\C(=O)NCCCCc1cccnc1)c1ccc(OC)cc1,81.5 to 82.5
11,CO/N=C(/CNC(=O)c1cnc(O[C@@H](C)C(F)(F)F)c(-c2ccc(Cl)cc2)n1)C1CC1,149 to 152
12,O=CN1CCN(C[C@H](O)COc2cccc3[nH]ccc23)CC1,106 to 107
13,CC(=O)N1CCN(c2nc(Cl)ccc2[N+](=O)[O-])CC1,137 to 138
14,COc1ccc(Nc2nc(Cl)nc(Nc3ccc(OC)c(F)c3)n2)cc1F,194
15,CCCCCCCCCCCCCCCCS(=O)(=O)NCCc1ccc(C(=O)O)cc1,168 to 169
16,Cc1nnc(N2C(=O)C(O)=C(C(=O)c3ccc(C(C)C)cc3)C2c2ccc(OC(F)(F)F)cc2)s1 (stereo unspecified),260
17,Cc1cccc(N2CCN(CCc3ccc(N4CCCNC4=O)cc3)CC2)c1,213
18,CCOC(=O)C1=C(C)NC(O)(c2ccc([N+](=O)[O-])cc2)C(C(=O)OCC)C1c1cccc([N+](=O)[O-])c1 (stereo unspecified),196 to 197
19,N#Cc1ccc(N2C(=O)N(CCCC(=O)O)C3(CCSCC3)C2=O)cc1C(F)(F)F,197 to 198
20,CN1CCC(C2(O)c3ccccc3Sc3ccc(S(=O)(=O)C(F)(F)F)cc32)CC1 (stereo unspecified),211 to 216
21,O=C(OCC1OC(OC(=O)C2CCCCC2)C(OC(=O)C2CCCCC2)C(OC(=O)C2CCCCC2)C1OC(=O)C1CCCCC1)C1CCCCC1 (stereo unspecified),174 to 176
22,Cc1cc2cc(CN3CCCC3)cnc2cc1NC(=O)c1ccc(-c2ccccc2)c(F)c1,167 to 170
23,CN(CCO)c1cc(C(c2cc(F)ccc2F)S(=O)(=O)c2ccc(Cl)cc2)c(Cl)cn1 (stereo unspecified),88 to 89
24,CCc1nc2c(N)nc3ccccc3c2n1CCOCCNC(=O)Nc1ccccc1,141 to 144

row,SMILES,melting point [°C]
1,O=C(Nc1cc(OCCCON=Cc2ccc(-c3ccccc3)cc2)ccc1C(=O)O)c1ccc(C(F)(F)F)cc1,206 to 207
2,CCOC(=O)C(Cc1ccc(C(=O)C(C)(C)C)cc1)(Cc1ccc(C(=O)C(C)(C)C)cc1)C(=O)OCC,65 to 67
3,O=C1O[C@@H](Cn2ccnn2)CN1c1ccc(-c2ccc(CO)nc2)c(F)c1,177
4,Oc1ccc(CCNc2ncnc3scnc23)c(F)c1,193
5,NC(=O)Nc1n[nH]c(-c2ccncc2)c1-c1ccc(F)cc1,224 to 225
6,C=CCC(F)(F)C(=O)C(Cc1ccccc1)NC(=O)c1ccccc1 (stereo unspecified),98
7,Cc1c(C)c(N2C(=O)c3cc(Cl)c(Cl)cc3C2=O)c(C)c2c1OC(C)(C)C2c1ccc(F)cc1 (stereo unspecified),232 to 233
8,CC(=O)Nc1nc(-c2ccc(SCOC(C)=O)cc2)cs1,144 to 145
9,COc1ccc(-c2ccc(C)nc2-c2ccc(O)cc2)cc1,190
10,COc1c(F)cc2c(=O)c(C(=O)O)cn(-c3cc(N)c(F)cc3F)c2c1C,> 280
11,ClCCCn1c2ccccc2c2cc(-c3nc(-c4ccccc4)no3)ncc21,192 to 195
12,CC1(C)CCC(Cc2ccc(Cl)cc2)C1(O)COS(C)(=O)=O (stereo unspecified),113 to 114
13,O=C(c1cccnc1)N1CCC(c2ccccc2C(F)(F)F)=N1,95 to 97
14,C#Cc1ccc(Nc2c(C(=O)NOCCO)ccc(F)c2F)c(F)c1,162
15,CCCCCCCCOc1cc(-c2cccc([N+](=O)[O-])c2)c(OCC(=O)O)c(-c2cccc([N+](=O)[O-])c2)c1,129 to 132
16,Clc1cc(OC[C@@H]2CCN2)cnc1Cl,59 to 60
17,COc1ccc(-c2cc3ccccc3[nH]2)cc1NCc1ccc([N+](=O)[O-])c(O)c1,134 to 135
18,O=C1NC(=O)C(Cc2ccc(SCc3ccccc3)cc2)S1 (stereo unspecified),102 to 103
19,Oc1ccc2c(NCCN3CCOCC3)noc2c1,151 to 152
20,CCC(=O)c1ccc(SC)cc1,60 to 61
21,CC(=O)SCC(C(=O)NC(CC(=O)O)Cc1ccccc1)C(F)(F)F (stereo unspecified),171 to 172
22,O=C(O)CCCCc1cc2nc(Cl)ccc2n1S(=O)(=O)c1ccc2ncsc2c1,169
23,COc1ccc(N2CNC(=O)C23CCN(CCCN(c2ccccc2)c2ccccc2)CC3)cc1,156 to 158
24,CC(=O)NC[C@@H]1C[C@H]1c1cccc2nn(C)c(F)c12 (relative stereo),109 to 111
